Data from ChEMBL document CHEMBL1777763, “Discovery of a nortropanol derivative as a potent and orally active GPR119 agonist for type 2 diabetes” (Bioorg Med Chem Lett, 2011).

Target: T1, Glucose-dependent insulinotropic receptor (Mus musculus) (UniProt Q7TQP3)
T1 sequence (whole entry): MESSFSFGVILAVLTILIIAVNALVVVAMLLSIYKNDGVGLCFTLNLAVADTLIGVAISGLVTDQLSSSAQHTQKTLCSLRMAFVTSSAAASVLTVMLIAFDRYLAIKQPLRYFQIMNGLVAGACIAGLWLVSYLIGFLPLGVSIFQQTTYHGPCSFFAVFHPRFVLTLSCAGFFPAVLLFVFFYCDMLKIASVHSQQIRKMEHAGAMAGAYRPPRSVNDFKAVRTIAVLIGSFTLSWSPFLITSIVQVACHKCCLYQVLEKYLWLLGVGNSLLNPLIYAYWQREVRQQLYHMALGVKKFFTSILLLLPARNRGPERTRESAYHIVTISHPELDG
Assay: Agonist activity at mouse GPR119 expressed in HEK293 cells assessed as maximal stimulation of cMAP level by cell-based cAMP assay relative to 21
Type: functional
Settings: not given

Activity [%]	SMILES
12	Cc1ncccc1Oc1ncnc(O[C@H]2CC3CC[C@@H](C2)N3C(=O)OC2(C)CC2)c1C (single isomer, unassigned)
25	CCOC(=O)N1C2CC[C@H]1C[C@@H](Oc1ncnc(Oc3cccnc3C)c1C)C2 (single isomer, unassigned)
20	Cc1ncccc1Oc1ncnc(O[C@H]2CC3CC[C@@H](C2)N3C(=O)OCC(F)(F)F)c1C (single isomer, unassigned)
33	Cc1ncccc1Oc1ncnc(O[C@H]2CC3CC[C@@H](C2)N3C(=O)OCC2CC2)c1C (single isomer, unassigned)
62	Cc1ncccc1Oc1ncnc(O[C@H]2CC3CC[C@@H](C2)N3S(=O)(=O)CC(F)(F)F)c1C (single isomer, unassigned)
76	Cc1ncccc1Oc1ncnc(O[C@H]2CC3CC[C@@H](C2)N3S(=O)(=O)C2CC2)c1C (single isomer, unassigned)
49	CCCS(=O)(=O)N1C2CC[C@H]1C[C@@H](Oc1ncnc(Oc3cccnc3C)c1C)C2 (single isomer, unassigned)

Test system: Mus musculus
Assay: Antidiabetic activity in overnight fasted mouse model assessed as blood glucose level at 3 mg/kg, po followed by 30 mins after administered 3 g/kg, po glucose by oral glucose tolerance test (reference value: 100 %)
Type: functional
Settings: not given

SMILES	Blood glucose (% of vehicle) [%]
Cc1ncccc1Oc1ncnc(O[C@H]2CC3CC[C@@H](C2)N3C(=O)OC2(C)CC2)c1C (single isomer, unassigned)	95
Cc1ncccc1Oc1ncnc(O[C@H]2CC3CC[C@@H](C2)N3S(=O)(=O)C2CC2)c1C (single isomer, unassigned)	87

Test system: Rattus norvegicus
Assay: AUC (0 to 6 hrs) in rat at 10 mg/kg, po
Type: ADME, organism-based, Plasma
Design: time < 6 hr, dose 10 mg/kg, route oral
Settings: in vivo

AUC [µM·h]	SMILES
2.84	Cc1ncccc1Oc1ncnc(O[C@H]2CC3CC[C@@H](C2)N3C(=O)OC2(C)CC2)c1C (single isomer, unassigned)
0.879	Cc1ncccc1Oc1ncnc(O[C@H]2CC3CC[C@@H](C2)N3S(=O)(=O)C2CC2)c1C (single isomer, unassigned)

Test system: not listed separately
Assay: Plasma concentration in mouse at 3 mg/kg, po after 1 hr
Type: ADME, organism-based
Design: dose 3 mg/kg, route oral
Settings: not given

concentration at 1 h [nM]	SMILES
130	Cc1ncccc1Oc1ncnc(O[C@H]2CC3CC[C@@H](C2)N3C(=O)OC2(C)CC2)c1C (single isomer, unassigned)
2330	Cc1ncccc1Oc1ncnc(O[C@H]2CC3CC[C@@H](C2)N3S(=O)(=O)C2CC2)c1C (single isomer, unassigned)

Target: T2, Glucose-dependent insulinotropic receptor (Mus musculus, UniProt Q7TQP3)
T2 sequence (Q7TQP3 whole entry): T1 sequence (whole entry)
Assay: Agonist activity at mouse GPR119 expressed in HEK293 cells assessed as stimulation of cMAP level by cell-based cAMP assay
Type: functional
Settings: not given

EC50 [nM]	SMILES
> 30000	Cc1ncccc1Oc1ncnc(O[C@H]2CC3CC[C@@H](C2)N3C(=O)OC2(C)CC2)c1C (single isomer, unassigned)
324	CCOC(=O)N1C2CC[C@H]1C[C@@H](Oc1ncnc(Oc3cccnc3C)c1C)C2 (single isomer, unassigned)
10400	Cc1ncccc1Oc1ncnc(O[C@H]2CC3CC[C@@H](C2)N3C(=O)OCC(F)(F)F)c1C (single isomer, unassigned)
7570	Cc1ncccc1Oc1ncnc(O[C@H]2CC3CC[C@@H](C2)N3C(=O)OCC2CC2)c1C (single isomer, unassigned)
660	Cc1ncccc1Oc1ncnc(O[C@H]2CC3CC[C@@H](C2)N3S(=O)(=O)CC(F)(F)F)c1C (single isomer, unassigned)
63	Cc1ncccc1Oc1ncnc(O[C@H]2CC3CC[C@@H](C2)N3S(=O)(=O)C2CC2)c1C (single isomer, unassigned)
53	CCCS(=O)(=O)N1C2CC[C@H]1C[C@@H](Oc1ncnc(Oc3cccnc3C)c1C)C2 (single isomer, unassigned)
